Measurements taken from patent US5700640A, “Inducers of gamma globin gene expression and screening assays therefor” (priority 1994, dated 1997).

Columns and labels:
[1] = test system: gamma globin reporter gene activity in gamma3'PE K562 cells (protein kinase C inhibition); experiment: effect of the pKC inhibitor hypericin on basal and BA-induced reporter gene activity; assay type: cell-based, human; conditions: 10 mM hypericin, 1 hour before 5 mM BA for 24 hours
Protocol: Consistent with the results using the pKC activator (-) indolactam V are the results of experiments utilizing the pKC inhibitor hypericin. In these experiments, cells were incubated in the presence or absence of hypericin (10 mM; LC Laboratories) for one hour prior to treatment with 5 mMBA for 24 hours, followed by harvesting of the cells and assaying of luciferase activity.

[2] = test system: gamma globin-regulated luciferase mRNA; experiment: cells; assay type: cell-based, human
Protocol: Total RNA was prepared by the method of McDonald as described in Sambrook et al., (1989) Molecular Cloning: A Laboratory Manual, 2nd Edition, Cold Spring Harbor Laboratory Press. 10 μg total cellular RNA was electrophoresed through agarose gels containing 3.3% formaldehyde. The electrophoresed RNA was then transferred to nitrocellulose filters by standard methods. Each sample was hybridized to specific probes for gamma globin mRNA, mRNA encoding the erythroid specific transcription factor GATA-1 and 28S ribosomal RNA (which was used for standardization). The gamma globin and GATA-1 probes were cDNA probes, which were labeled with ^32 p by random priming reactions (Promega Biotech Inc.). The 28S ribosomal RNA probe was an oligonucleotide having the sequence 5' […] 3' (SEQ ID NO: 3), which was labeled by 5' end labeling using T4 polynucleotide kinase (New England Biolabs). Nucleotide probes were hybridized to the RNA nitrocellulose filters according to standard techniques. After hybridization, radioactive signals on the nitrocellulose filters were directly quantified using a BioRad GS-250 Molecular Imager. mRNA hybridization intensities were normalized to the amount of 28S ribosomal RNA present for each sample. The results are summarized below in Table 1:
To determine if BA exerts its inductive effects by acting directly on pre-existing proteins in the cells, the effect of the protein synthesis inhibitor cycloheximide (CHX) on BA-induced expression of RNA was analyzed. In these experiments, gamma3'PE cells were incubated with 150 μg/ml CHX for 2 hr prior to addition of BA (5 mM). Control cells were incubated with either CHX or BA alone or were mock incubated. Cells were harvested 5 hr later for preparation of total RNA. RNA samples were electrophoresed, transferred to nitrocellulose and hybridized to a ^32 P-labeled luciferase cDNA probe as described in Example 4. The radioactive signals on the filter were quantitated using a BioRad GS-250 Molecular Imager and mRNA levels were normalized to values obtained for mock treated samples. […]

[3] = test system: GATA-1 mRNA; experiment: GATA-1 mRNA level (Northern) with BA and/or cycloheximide in gamma3'PE cells; assay type: cell-based, human
Protocol: To determine if BA exerts its inductive effects by acting directly on pre-existing proteins in the cells, the effect of the protein synthesis inhibitor cycloheximide (CHX) on BA-induced expression of RNA was analyzed. In these experiments, gamma3'PE cells were incubated with 150 μg/ml CHX for 2 hr prior to addition of BA (5 mM). Control cells were incubated with either CHX or BA alone or were mock incubated. Cells were harvested 5 hr later for preparation of total RNA. RNA samples were electrophoresed, transferred to nitrocellulose and hybridized to a ^32 P-labeled luciferase cDNA probe as described in Example 4. The radioactive signals on the filter were quantitated using a BioRad GS-250 Molecular Imager and mRNA levels were normalized to values obtained for mock treated samples. The results are presented graphically in FIG. 12, Panel A. BA treatment alone increased gamma globin-regulated luciferase mRNA by approximately 6 fold.
The results, normalized to mock treated samples, are depicted graphically in FIG. 12, Panel B. In contrast to luciferase mRNA which was induced by BA treatment, the level of GATA-1 RNA decreases about 3 fold in response to BA treatment.

[4] = test system: BA-induced reporter gene expression in gamma3'PE K562 cells; experiment: effect of extracellular KCl on BA-induced reporter gene activity; assay type: cell-based, human
Protocol: Valinomycin is a potassium ionophore known to cause depolarization of the K^+ gradient existing across cell membranes. To determine whether the effect of valinomycin indicated a requirement for a K^+ gradient for uptake of BA, gamma3'PE reporter cells were incubated in the presence of culture medium supplemented with increasing concentrations of KCl. Thus, as opposed to valinomycin, this treatment extinguishes the existing K^+ gradient from the external side of the membrane without affecting internal K^+ concentrations. Cells cultured in increasing concentrations on KCl were treated for 5 hours with BA and then harvested and assayed for luciferase activity. The results are shown in FIG. 10, wherein the bars indicate the level of reporter gene activity after induction in the presence of the indicated concentration of KCl and the asterisks indicate basal (uninduced) levels of reporter gene activity in replicate cultures.

[5] = test system: BA-mediated induction of luciferase activity in gamma3'PE K562 cells; experiment: effect of transport inhibitors on BA-induced reporter gene activity in gamma3'PE K562 cells; assay type: cell-based, human
Protocol: To characterize uptake of butyric acid by erythroid cells, K562 cells stably transfected with gamma3'PE were treated with BA in the presence of various transport inhibitors. […] Cells were maintained in the continuous presence of both BA and the inhibitor for 24 hours and then luciferase activity in the cells was measured.

[6] = test system: 14C BA transport into K562 cells; experiment: 14C butyric acid incorporation into gamma3'PE-transfected K562 cells; assay type: cell-based, human; conditions: valinomycin 10 μM, 1 hour preincubation; 50 μM 14C BA
Protocol: To directly examine whether transport of BA into erythroid cells required an intact K+ gradient, the incorporation of ^14 C BA into gamma3'PE-transfected K562 cells was assayed in the presence and absence of 10 μM valinomycin. Cells were incubated with 10 μM valinomycin for 1 hour prior to addition of ^14 C butyric acid (obtained commercially from Dupont/New England Nuclear) to a final concentration of 50 μM. At various times after addition of ^14 C BA, cells were harvested by vacuum filtration through a GF/C filter (Whatman) and washed with a total of 5 ml of RPMI culture media. Radioactivity associated with the cells was quantified directly by liquid scintillation counting of the filter. The results, shown in FIG. 11, indicate that the rate of ^14 C BA incorporation into the cells is inhibited nearly three fold by the addition of valinomycin. Although cells treated with valinomycin did accumulate some ^14 C BA, it is not clear whether this was actually internalized or bound to the surface of the cell. Neutralization of the potassium gradient could be expected to selectively prevent internalization but not binding of radioligand. […] Accordingly, the results described herein are consistent with an erythroid-specific transport mechanism for uptake of BA that is dependent upon an intact K^+ gradient across the cell membrane.

[7] = test system: BA uptake by colonocytes; conditions: Mascolo et al. 1991; cited from earlier work
[8] = test system: K562 cells; experiment: trypan blue exclusion; assay type: cell-based, human

Structure (SMILES): Cc1cc(O)c2c(=O)c3c(O)cc(O)c4c5c(O)cc(O)c6c(=O)c7c(O)cc(C)c8c1c2c(c34)c(c78)c65 [hypericin]
- effect on basal level and BA induced globin gene expression [1]: significant reduction in both basal level and BA induced globin gene expression

Structure (SMILES): C[C@@H]1C[C@@H]([C@H](O)CC2CC(=O)NC(=O)C2)C(=O)[C@@H](C)C1 [cycloheximide]
- effect of cycloheximide alone on luciferase mRNA ([2]; 150 μg/ml CHX alone): significant increase in gamma globin-regulated luciferase mRNA, albeit to a lower level than that observed with BA
- effect of cycloheximide on BA-mediated induction of luciferase mRNA ([2]; CHX 150 μg/ml 2 hr before BA 5 mM): failed to block BA-mediated induction of luciferase mRNA
- effect of cycloheximide alone on GATA-1 mRNA level ([3]; 150 μg/ml CHX alone): insensitive to cycloheximide treatment alone
- effect of cycloheximide on BA induced decrease in GATA-1 mRNA level ([3]; CHX 150 μg/ml plus BA 5 mM): sensitive to cycloheximide treatment

Structure (SMILES): [Cl-].[K+] [KCl]
- basal level globin expression at higher K+ concentrations ([4]; K+ above approximately 200 mM): a reduction in basal level globin expression was observed at higher K^+ concentrations
- external K+ concentration inhibiting BA-induced reporter gene expression ([4]; KCl in medium, BA 5 hours): approximately 200 mM
- effect on basal level gene expression ([4]; approximately 200 mM KCl): basal level gene expression was not affected

Structure (SMILES): CC(C)[C@@H]1NC(=O)[C@H](C)OC(=O)[C@@H](C(C)C)NC(=O)[C@@H](C(C)C)OC(=O)[C@H](C(C)C)NC(=O)[C@H](C)OC(=O)[C@@H](C(C)C)NC(=O)[C@@H](C(C)C)OC(=O)[C@H](C(C)C)NC(=O)[C@H](C)OC(=O)[C@@H](C(C)C)NC(=O)[C@@H](C(C)C)OC1=O [valinomycin]
- reduction in BA-mediated globin gene induction ([5]; valinomycin 10 μM, 24 hours): 4 fold
- effect on basal level globin gene expression ([5]; valinomycin, no BA): did not affect basal level globin gene expression
- inhibition of rate of 14C BA incorporation [6]: three
- effect on BA uptake by colonocytes [7]: not inhibited by valinomycin
- non-specific toxic effect [8]: did not result from a non-specific toxic effect
